{"source": "patent US8637310B2", "about": "“Use of a rock inhibitor to sustain primary human keratinocytes in a proliferative state” (The United States of America, as represented by the …, priority 2008, dated 2014)", "key": {"[1]": {"tested_on": "human foreskin keratinocytes (HFK)", "assay": "Long-term culture / immortalization of primary human foreskin keratinocytes on irradiated J2 feeder cells", "assay_type": "cell-based", "method": "Primary human foreskin keratinocytes (HFKs) were isolated and pooled from neonatal human foreskins from seven donors and grown in F medium (3: 1(v/v) F-12 Nutrient Mixture: DMEM, 5% FBS, 0.4 μg/ml hydrocortisone, 5 μg/ml insulin, 8.4 ng/ml cholera toxin, 10 ng/ml EGF, and 24 μg/ml adenine) (Jeon et al., Proc. Natl. Acad. Sci. USA 92:1654-1658, 1995) in the presence of irradiated J2 feeder cells. HFKs were divided into 10 cm plates, containing F-media with or without the addition of 10 μM Y-27632 (Alexis Biochemicals, San Diego, Calif.).\nHuman foreskin keratinocytes (HFKs) were isolated from pools of at least seven neonatal foreskins and grown in 154 medium supplemented with Human\nKeratinocyte Growth Supplement and Gentamicin/Amphotericin (Invitrogen, Carlsbad, Calif.) or in F medium [3:1 (v/v) F-12 (Ham)-DMEM, 5% FBS, 0.4 μg/ml hydrocortisone, 5 μg/ml insulin, 8.4 ng/ml cholera toxin, 10 ng/ml EGF, 24 μg/ml adenine, 100 U penicillin, 100 μg/ml streptomycin (Invitrogen, cat no. 15140-148)] in the presence of irradiated 3T3 J2 feeder cells (Jeon et al., J. Virol. 69: 2989-2997, 1995).\n(§1) The HPV18 cell line was established by introducing the HPV18 genome into primary HFKs using the Amaxa human keratinocyte nucleofection system. Primary human cervical keratinocytes (HCKs), human vaginal keratinocytes (HVKs), the HPV18 cell lines and the HPV31 positive cell line (CIN-612 9E) were grown in the presence or absence of 10 μM Y-27632 (Alexis Biochemicals), as indicated. Cells were subcultured by removing the fibroblast feeder cells with versene and keratinocytes were collected by trypsinization. At each pass, 2×10^5 cells were plated on a 10 cm plate of J2 feeder cells. Population doubling was calculated as: PD=3.32(log(# cells harvested/# cells seeded)). Immunodetection"}, "[2]": {"tested_on": "human embryonic stem cells", "conditions": "cited from earlier work"}, "[3]": {"tested_on": "human cervical keratinocytes (HCK)", "assay": "Long-term culture / immortalization of primary human cervical keratinocytes on feeder cells", "assay_type": "cell-based", "conditions": "10 μM Y-27632; FIG. 9", "method": "as §1"}, "HPV6": {"tested_on": "HPV6", "assay": "HPV DNA replication assay (Southern blot) in transfected primary keratinocytes, HPV6", "assay_type": "cell-based, human papillomavirus", "conditions": "10 μM Y-27632, FIG. 6", "method": "(§2) Cloned viral genomes were cleaved with restriction enzymes to separate viral and vector sequences. The genomes were religated at a concentration of 5 μg/ml to favor intramolecular circularization. Prior to electroporation, J2 feeder cells were removed from the keratinocytes by versene treatment and the HFKs were collected by trypsinization. HFKs (1×10^6) were electroporated with 2 μg of re-circularized viral genomic DNA using the Amaxa Nucleofector II electroporator and the Human Keratinocyte Nucleofector Kit. The Amaxa program optimized for cell survival was used according to the manufacturer's specifications. Cells were removed from the cuvettes immediately following electroporation, and seeded onto 10 cm plates containing irradiated feeder cells and F-medium, in the presence or absence of 10 μM Y-27632, as indicated. At various times post-transfection, low molecular weight DNA was isolated by a modified Hirt extraction procedure (Ustav et al., EMBO J. 10:449-457, 1991). For Southern blot analysis, the isolated DNA was linearized with EcoRI or BamHI, depending on cloning site for each viral genome, and DpnI, to digest any unreplicated input DNA. DNA fragments were separated by agarose gel electrophoresis followed by Southern blot hybridization. […]"}, "[4]": {"tested_on": "primary human foreskin keratinocytes", "conditions": "cited from earlier work"}, "p53": {"tested_on": "p53", "assay": "Immunodetection of p53 and p21 during culture", "assay_type": "cell-based, human", "conditions": "keratinocytes cultured with Y-27632", "method": "Proteins were extracted in 2% sodium dodecyl sulfate (SDS), 50 mM Tris-HCl (pH 6.8), 10% glycerol supplemented with inhibitors Complete and PhosphoSTOP (Roche, Indianapolis, Ind.). Protein samples were resolved on NuPage gels, electrotransferred to Immobilon-P membrane (Millipore, Billerica, Mass.), and probed with the relevant antibodies before detection by chemiluminescence. Monoclonal antibody against p53 (DO-1) was obtained from Santa Cruz Biotechnology (Santa Cruz, Calif.). Monoclonal antibody against α-tubulin (B-5-1-2) was obtained from Sigma-Aldrich. Polyclonal antibodies against Myc (N-262), p21 (C-19), and p16 (C-20) were obtained from Santa Cruz Biotechnology."}, "HPV18": {"tested_on": "HPV18", "assay": "HPV DNA replication assay (Southern blot) in transfected primary keratinocytes, HPV18", "assay_type": "cell-based, human papillomavirus", "method": "Cloned viral genomes were cleaved with restriction enzymes to separate viral and vector sequences. The genomes were religated at a concentration of 5 μg/ml to favor intramolecular circularization. Prior to electroporation, J2 feeder cells were removed from the keratinocytes by versene treatment and the HFKs were collected by trypsinization. HFKs (1×10^6) were electroporated with 2 μg of re-circularized viral genomic DNA using the Amaxa Nucleofector II electroporator and the Human Keratinocyte Nucleofector Kit. The Amaxa program optimized for cell survival was used according to the manufacturer's specifications. Cells were removed from the cuvettes immediately following electroporation, and seeded onto 10 cm plates containing irradiated feeder cells and F-medium, in the presence or absence of 10 μM Y-27632, as indicated. At various times post-transfection, low molecular weight DNA was isolated by a modified Hirt extraction procedure (Ustav et al., EMBO J. 10:449-457, 1991). For Southern blot analysis, the isolated DNA was linearized with EcoRI or BamHI, depending on cloning site for each viral genome, and DpnI, to digest any unreplicated input DNA. DNA fragments were separated by agarose gel electrophoresis followed by Southern blot hybridization. A ^32P-labeled probe was synthesized from the isolated viral genomic DNA (purified from the vector sequence) by the random prime method and used in Southern hybridizations."}, "p53 pathway": {"tested_on": "p53 pathway", "assay": "Growth arrest assay (DNA damage response to 0.5 nM actinomycin D)", "assay_type": "cell-based, human", "conditions": "0.5 nM actinomycin D 24 hours; Y-27632-treated HFKs at P122; FIG. 12B", "method": "Keratinocytes (1-2×10^6) were seeded on a 10 cm plate. Forty-eight hours later they were treated with 0.5 nM actinomycin D for 24 hours. Protein extracts were prepared, as described above, and analyzed for p53 and p21 protein levels."}, "HPV31": {"tested_on": "HPV31", "assay": "HPV31 genome copy number in CIN612 9E cells", "assay_type": "cell-based, human papillomavirus", "conditions": "10 μM Y-27632, FIG. 8", "method": "The 9E and W12 (20863 clone) cell lines were cultured in F-media on irradiated J2 feeder cells. For the Y-27632 experiments they were cultured in F-medium with or without 10 μM Y-27632 and continually passed for the times indicated.\nas §2, with “DNA.” for “DNA. DNA fragments were separated by agarose gel electrophoresis followed by Southern blot hybridization.”"}, "foreskin keratinocytes": {"tested_on": "foreskin keratinocytes", "assay": "Foreskin keratinocytes grown without fibroblast feeder cells, on plastic, serum-free medium", "assay_type": "cell-based, human", "conditions": "no fibroblast feeder cells", "method": "Culturing keratinocytes in the presence of fibroblast feeder cells increases the lifespan of keratinocytes (Fu et al., Cancer Res. 63: 7815-7824, 2003; Rheinwald et al., Mol. Cell Biol. 22: 5157-5172, 2002) and might contribute to the observed immortalization by Y-27632. Therefore, the effect of Y-27632 on foreskin keratinocytes grown in the absence of fibroblast feeder cells, cultured on plastic and in serum-free medium was analyzed. […] Therefore, co-culture with feeder fibroblasts is required in concert with ROCK inhibition to immortalize keratinocytes."}, "[5]": {"conditions": "10 μM Y-27632, Example 2, FIG. 14"}}}
{"smiles": "CC(N)[C@H]1CC[C@H](C(=O)Nc2ccncc2)CC1", "note": "(single isomer, unassigned; (+)) [Y-27632, (+)-trans-N-(4-Pyridyl)-4-(1-aminoethyl)-cyclohexanecarboxamide]", "values": [{"measurement": "continued division / growth rate beyond senescence of untreated cells (about 15 passages)", "setting": "[1]; 10 μM Y-27632, Example 1", "result": "continued to divide without any decrease in growth rate"}, {"measurement": "number of times treated cells were passed", "setting": "[1]; 10 μM Y-27632, Example 1", "result": "at least 82 times"}, {"measurement": "proliferation rate versus untreated cells", "setting": "[1]; 10 μM Y-27632, Example 1", "result": "proliferated at a rate that exceeded the untreated cells almost immediately"}, {"measurement": "time in continuous culture", "setting": "[1]; 10 μM Y-27632, Example 1", "result": "over 10 months"}, {"measurement": "passages in culture", "setting": "[1]; [5]", "result": "up to 150 passages"}, {"measurement": "period of culture", "setting": "[1]; [5]", "result": 500, "unit": "days"}, {"measurement": "bypass of senescence", "setting": "[1]; 10 μM Y-27632, FIG. 9", "result": "efficiently bypassed senescence with no observed decline in growth rate"}, {"measurement": "cellular proliferation", "setting": "[1]; 10 μM Y-27632, FIG. 9", "result": "dramatic increase in cellular proliferation"}, {"measurement": "population doubling (PD) to which cells were cultured, considered to be immortal", "setting": "[1]; +Y-27632 (10 μM), HFK strain b", "result": "PD199"}, {"measurement": "growth after withdrawal of Y-27632", "setting": "[1]; withdrawn at passage 48, after 196 days in culture", "result": "continued to grow unchecked with only a gradual slowing in the rate of population doubling"}, {"measurement": "survival rate of human embryonic stem cells following cryopreservation", "setting": "[2]; Li et al. 2008", "result": "enhances the survival rate"}, {"measurement": "survival of embryonic stem cells", "setting": "[2]; Watanabe et al. 2007", "result": "greatly increase the survival of embryonic stem cells"}, {"measurement": "bypass of senescence", "setting": "[3]", "result": "efficiently bypassed senescence with no observed decline in growth rate"}, {"measurement": "cellular proliferation", "setting": "[3]", "result": "dramatic increase in cellular proliferation"}, {"measurement": "HPV6 viral DNA levels, long-term assay", "setting": "HPV6; after three passes", "result": "the levels of viral DNA declined"}, {"measurement": "efficiency of HPV6 replication, long-term assay", "setting": "HPV6; up to three passes", "result": "greatly increased the efficiency of replication and robust levels of viral DNA were present after three passes"}, {"measurement": "colony forming ability", "setting": "[4]", "result": "increase the colony forming ability"}, {"measurement": "p21 induction", "setting": "p53", "result": "not induced"}, {"measurement": "p53 protein levels", "setting": "p53", "result": "gradually increase"}, {"measurement": "efficiency of HPV replication", "setting": "HPV18; 10 μM Y-27632, two and five days post-electroporation, FIG. 5", "result": "greatly increased the efficiency of HPV replication up to five days"}, {"measurement": "HPV18 replication, long-term assay", "setting": "HPV18; after day 10, FIG. 6", "result": "greater levels of replication in the absence of Y-27632"}, {"measurement": "HPV18 replication, long-term assay", "setting": "HPV18; at early times, FIGS. 5 and 6", "result": "greater in the presence of Y-27632"}, {"measurement": "DNA damage response (p53 and p21 upregulation)", "setting": "p53 pathway", "result": "normal DNA damage response"}, {"measurement": "HPV31 copy number", "setting": "HPV31", "result": "remained constant"}, {"measurement": "proliferation in the absence of feeder cells", "setting": "foreskin keratinocytes", "result": "somewhat increased proliferation"}, {"measurement": "bypass of senescence in the absence of feeder cells", "setting": "foreskin keratinocytes; repeated experiments", "result": "did not bypass senescence"}]}
